The source of these data is patent publication US20240094197A1, “Method for removing protein corona of the surface of nanometer particle” (ZHEJIANG UNIVERSITY, priority 2022, published 2024).

Series [1] relates to human-derived tumor xenograft of HCC. As to the kind of experiment: In vivo antitumor activity and toxicity (HCC model). Details: species or system BALB/c nude mice. The method, then:
The study of liposome and its characteristics and anti-tumor activity in Example 2 was the same as that in Example 1. The difference was that LPGL liposome and LGL liposome were prepared by replacing DSPE-PEG2000-RGD with DSPE-PEG2000-NGR. The DSPE-PEG2000-NGR refers to 1,2-distearoyl-sn-glycero-3-phosphoethanolamine-N-[methoxy (polyethylene glycol)-2000]-NGR targeting peptide, the amino acid sequence of NGR targeting peptide was Gly (glycine)-Gly (glycine)-Cys (cysteine)-Asn (asparagine)-Gly (glycine)-Arg (arginine)-Cys (cysteine) with the amino acid sequence GGCNGRC (SEQ ID NO: 2).
BALB/c nude mice bearing human-derived tumor xenograft of hepatocellular carcinoma (HCC) in the subcutaneous region were selected and grouped into six groups (n=9, wherein three mice of each group were selected to measure the accumulation content of gemcitabine triphosphate active metabolite (dFdCTP) in the tumor after 24 h of first intravenous injection). Same to the PDA model in the Example 1, after BALB/c nude mice subcutaneously bearing human-derived tumor xenograft of HCC were injected with free GEM PBS 7.4 buffer, GL liposome, NGR modified LGL liposome, PGL liposome, NGR modified LPGL liposome or PBS 7.4, the tumor site was treated with ultrasound stimulation (+US, acoustic intensity: 2 W/cm^2, frequency: 3 MHz, duty cycle: 50%, duration time: 20 min). At 24 h after firstly intravenous injection, the accumulation content of gemcitabine triphosphate active metabolite (dFdCTP) in the tumor was shown in FIG. 17B. As GEM could quickly be phosphorylated into its active metabolite of GEM triphosphate (dFdCTP) in tumor, so the dFdCTP was widely used as a quantitative index of GEM.
The tumor size and the bodyweight of mice in each group was shown in FIG. 17C, FIG. 17D, FIG. 17E and FIG. 17F. […] At the end of the 34-day experiment, the mice serum was sampled, and the content of alanine aminotransferase (ALT), aspartate aminotransferase (AST), creatinine (CRE) and blood urea nitrogen (BUN) in the serum was detected to evaluate the in vivo hepatic and renal toxicity (as shown in Table 4).

Series [2] relates to human-derived tumor xenograft of PDA. Put plainly: In vivo antitumor activity (PDA model). On the set-up: species or system BALB/c nude mice. How it is done: BALB/c nude mice bearing human-derived tumor xenograft of PDA in the subcutaneous region were selected and grouped into seven groups (n=6). Each group was intravenously injected with LPGL liposome dispersion (dose equivalent to GEM 10 mg/kg), PGL liposome dispersion (dose equivalent to GEM 10 mg/kg), LGL liposome dispersion (dose equivalent to GEM 10 mg/kg), GL liposome dispersion (dose equivalent to GEM 10 mg/kg), GEM PBS7.4 dispersion (dose equivalent to GEM 10 mg/kg), LPL liposome dispersion or PBS 7.4 buffer respectively every two days for a total of four times. The 16th day was the first time of intravenous injection administration. The tumor site of each group was treated with ultrasound stimulation (acoustic intensity: 2 W/cm^2, frequency: 3 MHz, duty cycle: 50%, duration time: 20 min) after post-injection. The width and length of the tumors and the bodyweight of mice were measured during the treatment. At the end of the experiment at 36 days, the blood was collected, then mice were euthanized, tumors were dissected and weighed. The therapeutic efficacy was evaluated by comparing tumor size in the experimental group and control group. The tumor inhibition rate=100%×(mean tumor weight of PBS group−mean tumor weight of experimental group)/mean tumor weight of PBS group. The dissected tumors were fixed with 4% neutral buffered paraformaldehyde and embedded in paraffin. Tissue sections of 5-μm thick were mounted onto glass slides and stained with hematoxylin-eosin (H&E), and then examined by light microscopy. The immunohistochemistry staining of Ki67 was tested to investigate the percentage of proliferous tumor cells positively stained in the examined field. Tissue sections were subjected to Ki67 staining using the Ki67-antibody Assay Kit according to the manufacturer's protocol. Apoptotic cells were also identified using TUNEL Apoptosis Assay Kit and examined using CLSM

Series [3] concerns 3D multicellular tumor spheroids of BxPC3. As to the kind of experiment: Morphology and apoptosis of tumor spheroids (light microscope, TUNEL staining). In kind it is cell-based, human. Particulars: equivalent to GEM 0.1 μM, serum-containing medium, ultrasound stimulation, 72 h. The method, then: The method for inhibiting 3D multicellular tumor spheroids of BxPC3 with free GEM and different liposomes is as follows: the mixture of LPGL, PGL, LGL, GL liposome, free gemcitabine (GEM) or PBS and serum-containing medium was incubated with 3D multicellular tumor spheroids of BxPC3 at the final testing concentrations (equivalent to GEM: 0.1 μM), and treated with ultrasound stimulation (acoustic intensity: 2 W/cm^2, frequency: 3 MHz, duty cycle: 50%, duration time: 5 min), then incubated for 72 h, the morphology of 3D multicellular tumor spheroids of BxPC3 in different treatment group was observed using light microscope and TUNEL staining, scale bar=500 μm. […] (10E) The mean integrated optical density (IOD) of fluorescence in two inner layers of 75 μm and 100 μm (as shown in FIG. 10 D) in 3D multicellular tumor spheroids of BxPC3 was analyzed using Image-pro Plus 6.0 software to evaluate the penetration ability of liposome.
The cytotoxicity of the liposome was tested on the three-dimensional (3D) multicellular tumor spheroids of BxPC3 or Huh7. […] The sample plates were then detected using a plate reader at 530 nm excitation and 590 nm emission to obtain fluorescence intensity readouts. In addition, apoptosis induced by the liposome in spheroids were further determined by the TdT-mediated dUTP nick end labeling (TUNEL) assay, and the positive TUNEL-staining cells were examined by CLSM.

The test system of series [4] is three-dimensional (3D) multicellular tumor spheroids of BxPC3. As to the kind of experiment: Cytotoxicity on 3D multicellular tumor spheroids (Alamar Blue). The class given is cell-based, human. The settings on record: serum-containing medium, ultrasound stimulation, 72 h, equivalent to GEM 0~10 μM. The method, then: (§1) The cytotoxicity of the liposome was tested on the three-dimensional (3D) multicellular tumor spheroids of BxPC3 or Huh7. The tumor spheroids were established using the hanging drop method. The mixture of LPGL, PGL, LGL, GL or free gemcitabine (GEM) and serum-containing medium were respectively added into the wells containing three-dimensional (3D) multicellular tumor spheroids of BxPC3 or Huh7 at the final testing concentrations (equivalent to GEM: 0˜10 μM), and treated with ultrasound stimulation (acoustic intensity: 2 W/cm^2, frequency: 3 MHz, duty cycle: 50%, duration time: 5 min), then incubated for 72 h. Meanwhile, the LPL liposome with equimolar ratio to LPGL liposome was tested as a control. Afterward, the culture medium was replaced with a mixture of 90 μL fresh culture medium and 10 μL Alamar Blue Cell Viability Reagent, and was continuously incubated for 12 h. The sample plates were then detected using a plate reader at 530 nm excitation and 590 nm emission to obtain fluorescence intensity readouts. In addition, apoptosis induced by the liposome in spheroids were further determined by the TdT-mediated dUTP nick end labeling (TUNEL) assay, and the positive TUNEL-staining cells were examined by CLSM.
In general terms: Resazurin is reduced to fluorescent resorufin, in cell work by metabolically active cells.

The subject of series [5] is three-dimensional (3D) multicellular tumor spheroids of Huh7. The series is described as above. In kind it is cell-based, human. Particulars: serum-containing medium, ultrasound stimulation, 72 h, equivalent to GEM 0~10 μM. How it is done:
as §1

For another series, the system named is BxPC3 cells. Put plainly: Endocytic pathway in tumor cells (endocytosis inhibitors). The settings on record: chlorpromazine 50 μM, genistein 200 μM, wortmannin 5 μM, cytochalasin D 5 μM; for inhibition rate on the endocytosis of LPGL in BxPC3 cells: serum-containing medium; for inhibition at 5 µM / inhibition at 200 µM / inhibition at 50 µM: Homo sapiens. The class given is cell-based, human. How it is done:
BxPC3 cells (1×10^5 cells/mL, 1 mL) were cultured in 12-well plates for 24 h, and the culture medium was then replaced with 1 mL fresh serum-free medium. Chlorpromazine (50 μM, clathrin-mediated endocytosis inhibitor), genistein (200 μM, caveolae-mediated endocytosis inhibitor), wortmannin (5 μM, phosphatidylinositol 3-kinases-mediated macropinocytosis inhibitor), or cytochalasin D (5 μM, actin-polymerization inhibitor) was added to the medium for 2 h of incubation. Another group of BxPC3 cells without any endocytosis inhibitor treatment was cultured for 2 h as the control group. Next, the mixture of Cy5-labeled LPGL liposome (equivalent to fluorescent lipids of 60 μg/mL, 20 μL) and serum-containing medium or serum-free medium was respectively added into the plate, and subsequently treated with or without ultrasound stimulation (acoustic intensity: 2 W/cm^2, frequency: 3 MHz, duty cycle: 50%, duration time: 5 min). After incubation of 3 h, cells were washed, digested and collected into a centrifugal tube, and the mean fluorescence intensity was detected by flow cytometry.

Setting [6] is: mice serum, end of the 34-day experiment, LGL and LPGL are NGR modified.
[7] abbreviates: BXPC-3, serum-containing medium, with ultrasound stimulation, read-out: inhibition rate on the endocytosis of LPGL in BxPC3 cells.
Where [8] appears, read: BXPC-3, serum-containing medium, without ultrasound stimulation, read-out: inhibition rate on the endocytosis of LPGL in BxPC3 cells.
[9] abbreviates: BXPC-3, serum-free medium, without ultrasound stimulation, read-out: inhibition rate on the endocytosis of LPGL liposome in BxPC3 cells.

Like-named read-outs stand apart in the source and are kept apart here.

As for `Nc1ccn([C@@H]2O[C@H](CO)[C@@H](O)C2(F)F)c(=O)n1` [GEM, gemcitabine], the bodyweight of mice result in series [1] (during treatment) is “gradually decreased”. Besides, the “content of AST, ALT, BUN and CRE relative to normal range” value in series [1] (mice serum, end of the 34-day experiment) is “beyond the maximum of normal limit”. Also, in series [1] (setting [6]), the ALT is 81.1 ± 10.5 U/L, the AST came to 218.6 ± 25.3 U/L, the BUN stood at 47.6 ± 5.0 mg/dL and the CRE stood at 0.68 ± 0.17 mg/dL. Moreover, in series [2] (during treatment / end of the 36-day experiment), the “side effects: body weight, white blood cell (WBC) and blood platelet” value is “distinct body weight loss, and hematological damage on sharp decrease of white blood cell (WBC) and blood platelet”. For the same compound, in series [2] (end of the 36-day experiment), the “H&E staining of excised tumors, vs LPL liposome and PBS” value is on record as “much less densely populated cells”; the “distribution of apoptotic cells in tumor (TUNEL assay)” value was “merely existed around the tumor periphery”. Further, in series [2] (i.v. every two days, four times, dose equivalent to GEM 10 mg/kg, ultrasound on tumor 20 min), the “change of tumor volume” value is reported as “firstly delayed, but then recovered to grow when stopping administration”. For the same compound, in series [3], the “apoptotic cells in BxPC3 spheroids (TUNEL staining)” value is “few apoptotic cells distributed around the spheroid's periphery” and the “morphology of BxPC3 spheroids (light microscope)” value was “no significant change in morphology”. Also, in series [4], the “cytotoxicity against 3D multicellular tumor spheroids of BxPC3” value was “dose-dependent cytotoxicity”. Besides, in series [5], the “cytotoxicity against 3D multicellular tumor spheroids of Huh7” value is given as “dose-dependent cytotoxicity”.
As for `C=C1[C@@H](C)[C@H]2[C@H](Cc3ccccc3)NC(=O)[C@]23[C@H](OC(C)=O)/C=C/[C@@](C)(O)C(=O)[C@@H](C)C/C=C/[C@H]3[C@@H]1O` [cytochalasin D], the “inhibition rate on the endocytosis of LPGL in BxPC3 cells” value with BxPC3 cells (with ultrasound stimulation) turned out to be 17.0%; in the series with BxPC3 cells (without ultrasound stimulation), 10.2%. The “inhibition rate on the endocytosis of LPGL liposome in BxPC3 cells” value in the series with BxPC3 cells (serum-free medium, without ultrasound stimulation) was determined as 19.9%.
Take `COC[C@H]1OC(=O)c2coc3c2[C@@]1(C)C1=C(C3=O)[C@@H]2CCC(=O)[C@@]2(C)C[C@H]1OC(C)=O` [wortmannin]: the inhibition (in general, the share of the control response that was lost under treatment) at 5 µM in the series on BxPC3 cells (BXPC-3, read-out: inhibition rate on the endocytosis of LPGL in BxPC3 cells, serum-containing medium, with ultrasound stimulation) turned out to be 24.8%; with BxPC3 cells (BXPC-3, read-out: inhibition rate on the endocytosis of LPGL in BxPC3 cells, serum-containing medium, without ultrasound stimulation) it was 23.5%; in the series with BxPC3 cells (BXPC-3, read-out: inhibition rate on the endocytosis of LPGL liposome in BxPC3 cells, serum-free medium, without ultrasound stimulation), 13.4%.
Turning to `O=c1c(-c2ccc(O)cc2)coc2cc(O)cc(O)c12` [genistein], the figures for the inhibition at 200 µM with BxPC3 cells (setting [7]), in the series with BxPC3 cells (setting [8]) and with BxPC3 cells (setting [9]) were 52.5%, 28.9% and 57.6%, respectively.
In the case of `CN(C)CCCN1c2ccccc2Sc2ccc(Cl)cc21` [chlorpromazine], the inhibition at 50 µM in the series on BxPC3 cells (setting [7]) was found to be 24.4%; with BxPC3 cells (setting [8]), 35.9%; in the series on BxPC3 cells (setting [9]), 21.1%.
